Among the data in ChEMBL document CHEMBL3639365, “Substituted aniline derivatives” (2014) are IC50 values, retold here.

Assay [1] addresses 1,3-beta-glucan synthase (Aspergillus, UniProt Q4WLT4). Description: (§1) Glucan Synthase Assay: The glucan synthase assay follows the incorporation of tritiated UDP-glucose into acid insoluble β-glucan as catalysed by the glucan synthase activity present in membrane preparations from Candida albicans and Aspergillus fumigatus. UDP-[3H]-glucose (ca 0.01 μCi) is added to 100 μl assay buffer (50 mM Tris-Cl, pH8.0, 8% glycerol, 1 mM EDTA, 1.5 mM KF, 1 mM DTT, 20 μM GTPγS, 600 μM UDP-glucose) and the reaction initiated by the addition of 2.5 μl of enzyme preparation. After incubation at 30°C. for 120 minutes, 10 μl of 30 mg/ml BSA is added with mixing and the reaction is terminated with 110 μl ice-cold 20% TCA. The precipitate is collected on a GF/B filter plate and washed three times with 200 μl water. Once dry, 200 μl of Microscint20 is added to each well and the plate is read on a Top-count scintillation counter.

Assay [2] has as its target 1,3-beta-glucan synthase (Candida, UniProt O13428). The assay is described as §1.

1,3-beta-glucan synthase (Aspergillus, UniProt Q4WLT4), sequence (Q4WLT4 whole entry): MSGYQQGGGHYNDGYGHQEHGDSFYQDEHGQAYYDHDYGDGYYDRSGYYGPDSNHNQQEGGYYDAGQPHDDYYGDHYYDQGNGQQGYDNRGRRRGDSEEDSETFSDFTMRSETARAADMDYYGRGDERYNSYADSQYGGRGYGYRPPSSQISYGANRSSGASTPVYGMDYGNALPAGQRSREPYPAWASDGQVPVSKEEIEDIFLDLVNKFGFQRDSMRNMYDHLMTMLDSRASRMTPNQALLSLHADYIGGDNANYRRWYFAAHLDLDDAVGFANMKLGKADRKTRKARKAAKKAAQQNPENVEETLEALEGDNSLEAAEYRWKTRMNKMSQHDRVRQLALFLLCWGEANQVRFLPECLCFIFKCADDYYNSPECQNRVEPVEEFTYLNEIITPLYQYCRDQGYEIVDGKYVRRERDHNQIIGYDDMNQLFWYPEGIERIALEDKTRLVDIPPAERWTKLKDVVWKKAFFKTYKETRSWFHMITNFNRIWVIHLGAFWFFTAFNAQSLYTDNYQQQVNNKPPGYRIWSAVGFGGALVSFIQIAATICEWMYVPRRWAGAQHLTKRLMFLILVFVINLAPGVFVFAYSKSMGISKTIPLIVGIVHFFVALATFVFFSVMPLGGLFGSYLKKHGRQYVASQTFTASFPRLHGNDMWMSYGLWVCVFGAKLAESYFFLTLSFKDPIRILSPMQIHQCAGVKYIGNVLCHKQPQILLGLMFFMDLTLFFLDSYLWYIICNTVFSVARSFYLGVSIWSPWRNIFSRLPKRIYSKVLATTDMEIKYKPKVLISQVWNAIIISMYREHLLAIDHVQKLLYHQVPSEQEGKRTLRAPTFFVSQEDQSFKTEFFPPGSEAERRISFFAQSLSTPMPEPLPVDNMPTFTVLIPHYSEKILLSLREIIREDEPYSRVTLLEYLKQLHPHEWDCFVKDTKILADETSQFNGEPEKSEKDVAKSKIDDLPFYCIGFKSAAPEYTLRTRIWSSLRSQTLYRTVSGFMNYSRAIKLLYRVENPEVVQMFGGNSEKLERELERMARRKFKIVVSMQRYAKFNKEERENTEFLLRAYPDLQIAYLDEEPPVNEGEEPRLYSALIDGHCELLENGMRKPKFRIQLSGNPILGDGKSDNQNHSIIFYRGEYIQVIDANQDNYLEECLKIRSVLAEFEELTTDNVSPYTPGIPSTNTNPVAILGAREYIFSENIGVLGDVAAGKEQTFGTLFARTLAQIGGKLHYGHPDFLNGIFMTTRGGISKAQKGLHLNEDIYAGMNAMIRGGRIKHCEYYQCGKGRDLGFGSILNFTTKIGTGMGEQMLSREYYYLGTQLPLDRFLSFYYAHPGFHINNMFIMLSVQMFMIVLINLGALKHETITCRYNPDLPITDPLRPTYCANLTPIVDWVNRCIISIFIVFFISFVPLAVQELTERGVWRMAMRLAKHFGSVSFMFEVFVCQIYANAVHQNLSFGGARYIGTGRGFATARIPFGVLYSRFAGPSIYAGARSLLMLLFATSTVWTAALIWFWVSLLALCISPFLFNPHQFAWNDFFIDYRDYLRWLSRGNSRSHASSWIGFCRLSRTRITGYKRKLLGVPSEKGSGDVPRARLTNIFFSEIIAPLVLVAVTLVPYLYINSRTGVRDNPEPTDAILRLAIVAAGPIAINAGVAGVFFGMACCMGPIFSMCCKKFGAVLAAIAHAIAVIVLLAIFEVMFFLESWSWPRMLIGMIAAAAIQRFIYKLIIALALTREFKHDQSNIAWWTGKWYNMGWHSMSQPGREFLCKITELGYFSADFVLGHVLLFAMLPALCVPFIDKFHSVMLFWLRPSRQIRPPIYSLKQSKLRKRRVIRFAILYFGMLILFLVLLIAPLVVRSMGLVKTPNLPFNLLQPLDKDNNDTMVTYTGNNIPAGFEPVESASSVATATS
1,3-beta-glucan synthase (Candida, UniProt O13428), sequence (O13428 whole entry): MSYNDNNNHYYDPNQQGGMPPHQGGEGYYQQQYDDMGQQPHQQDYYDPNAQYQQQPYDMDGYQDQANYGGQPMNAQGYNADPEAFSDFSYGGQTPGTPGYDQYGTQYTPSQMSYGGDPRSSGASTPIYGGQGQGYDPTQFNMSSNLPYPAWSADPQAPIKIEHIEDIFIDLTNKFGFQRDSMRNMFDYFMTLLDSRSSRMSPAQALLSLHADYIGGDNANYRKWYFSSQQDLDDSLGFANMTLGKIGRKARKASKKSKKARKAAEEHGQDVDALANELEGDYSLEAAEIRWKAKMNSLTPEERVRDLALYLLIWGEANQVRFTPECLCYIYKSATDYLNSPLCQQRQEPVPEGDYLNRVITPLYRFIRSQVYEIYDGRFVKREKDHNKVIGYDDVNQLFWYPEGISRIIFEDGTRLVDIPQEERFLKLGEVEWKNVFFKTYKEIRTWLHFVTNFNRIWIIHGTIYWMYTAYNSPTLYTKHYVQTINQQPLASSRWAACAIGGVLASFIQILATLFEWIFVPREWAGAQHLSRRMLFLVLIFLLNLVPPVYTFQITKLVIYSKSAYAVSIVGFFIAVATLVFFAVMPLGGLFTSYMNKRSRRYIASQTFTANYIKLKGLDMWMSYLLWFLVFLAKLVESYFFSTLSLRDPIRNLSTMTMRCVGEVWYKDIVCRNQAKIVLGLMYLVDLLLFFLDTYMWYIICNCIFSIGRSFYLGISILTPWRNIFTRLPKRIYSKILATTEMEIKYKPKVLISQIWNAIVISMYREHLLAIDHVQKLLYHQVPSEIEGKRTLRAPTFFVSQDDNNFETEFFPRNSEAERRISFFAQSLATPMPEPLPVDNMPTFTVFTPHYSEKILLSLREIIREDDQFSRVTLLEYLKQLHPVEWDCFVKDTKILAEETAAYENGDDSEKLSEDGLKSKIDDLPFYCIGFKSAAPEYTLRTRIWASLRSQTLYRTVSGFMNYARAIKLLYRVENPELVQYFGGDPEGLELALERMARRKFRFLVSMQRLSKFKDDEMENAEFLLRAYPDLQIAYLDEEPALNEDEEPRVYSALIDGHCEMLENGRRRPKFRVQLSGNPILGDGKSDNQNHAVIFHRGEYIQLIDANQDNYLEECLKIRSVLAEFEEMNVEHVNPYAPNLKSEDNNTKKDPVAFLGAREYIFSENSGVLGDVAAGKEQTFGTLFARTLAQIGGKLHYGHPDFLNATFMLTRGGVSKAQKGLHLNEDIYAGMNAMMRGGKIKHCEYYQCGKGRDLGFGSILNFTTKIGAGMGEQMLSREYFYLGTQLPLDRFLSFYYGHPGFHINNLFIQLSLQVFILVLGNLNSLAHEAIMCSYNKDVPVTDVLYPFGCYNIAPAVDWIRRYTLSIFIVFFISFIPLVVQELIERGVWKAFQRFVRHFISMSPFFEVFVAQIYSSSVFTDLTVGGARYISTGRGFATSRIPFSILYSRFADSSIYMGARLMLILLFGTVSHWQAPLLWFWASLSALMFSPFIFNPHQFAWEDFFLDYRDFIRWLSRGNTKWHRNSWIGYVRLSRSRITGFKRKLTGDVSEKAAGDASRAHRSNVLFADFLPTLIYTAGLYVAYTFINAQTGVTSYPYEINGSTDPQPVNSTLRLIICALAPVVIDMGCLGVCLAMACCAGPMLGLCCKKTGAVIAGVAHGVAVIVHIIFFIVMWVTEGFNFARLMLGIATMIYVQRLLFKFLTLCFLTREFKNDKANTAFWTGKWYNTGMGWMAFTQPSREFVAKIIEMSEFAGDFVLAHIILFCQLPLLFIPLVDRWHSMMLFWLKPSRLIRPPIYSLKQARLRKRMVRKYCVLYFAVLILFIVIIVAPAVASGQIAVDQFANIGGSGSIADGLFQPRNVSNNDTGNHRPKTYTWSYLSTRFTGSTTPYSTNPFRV

As usually defined, the IC50 is the midpoint of a concentration-inhibition curve. Low readings indicate greater potency, high ones weaker potency. In the case of `N[C@H]1CCN(C(=O)CN(CC(=O)NCc2cccc(Cl)c2)c2ccc(Oc3ccccc3)cc2)C1`, the IC50 against 1,3-beta-glucan synthase [1] was 5.6 µM; at 1,3-beta-glucan synthase [2] it was 8 µM.
